PubChem BioAssay (NCI)
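Method: 48-hour compound exposure of cells in 96-well plates, five concentrations, linear interpolation of endpoints. GI50: concentration for 50% inhibition of growth. TGI denotes the concentration required for complete inhibition of growth.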

Tests used:
Experiment in all cases: growth of human tumour cells (NCI), 48 h
SF-268 CNS = test system: SF-268 CNS
IGROV1 ovarian = test system: IGROV1 ovarian
A549 NSCLC = test system: A549 NSCLC
RXF 393 renal = test system: RXF 393 renal
U251 CNS = test system: U251 CNS
M14 melanoma = test system: M14 melanoma
ACHN renal = test system: ACHN renal
SK-MEL-5 melanoma = test system: SK-MEL-5 melanoma
SN12C renal = test system: SN12C renal
TK-10 renal = test system: TK-10 renal

| Structure (SMILES) | TGI (SF-268 CNS) | TGI (IGROV1 ovarian) | TGI (A549 NSCLC) | TGI (RXF 393 renal) | TGI (U251 CNS) | TGI (M14 melanoma) | TGI (ACHN renal) | TGI (SK-MEL-5 melanoma) | TGI (SN12C renal) | TGI (TK-10 renal) | GI50 (SF-268 CNS) | GI50 (IGROV1 ovarian) | GI50 (A549 NSCLC) | GI50 (RXF 393 renal) | GI50 (U251 CNS) | GI50 (M14 melanoma) | GI50 (ACHN renal) | GI50 (SK-MEL-5 melanoma) | GI50 (SN12C renal) | GI50 (TK-10 renal) |
| --- | --- | --- | --- | --- | --- | --- | --- | --- | --- | --- | --- | --- | --- | --- | --- | --- | --- | --- | --- | --- |
| Nc1nc2nc[nH]c2c(=O)[nH]1 | > 100 µM | > 100 µM | > 100 µM | > 100 µM | > 100 µM | > 100 µM | > 100 µM | > 100 µM | > 100 µM | > 100 µM | – | – | – | – | – | – | – | – | – | – |
| CCCN(CCC)c1ccc(/C=N/NC(=O)c2cccnc2)c(Cl)c1 | 38.9 µM | 15.6 µM | 36.1 µM | 25.3 µM | 20.6 µM | 23.2 µM | > 88.1 µM | 19 µM | 34.3 µM | 3.15 µM | 15.5 µM | 1.21 µM | 6.84 µM | 11.5 µM | 4.78 µM | 8.71 µM | 23.3 µM | 6.09 µM | 14.1 µM | 0.5 µM |
| Cc1cc(Cl)cc2c1NC(=O)C2(O)C(C)C(=O)c1ccc(Cl)cc1 (stereo not given) | > 100 µM | > 100 µM | > 100 µM | 89.8 µM | > 100 µM | > 100 µM | > 100 µM | > 64.7 µM | > 100 µM | > 100 µM | – | – | – | – | – | – | – | – | – | – |
| CC(C)=CC(=O)Cc1nc2cc(C)c(C)cc2[nH]c1=O | > 100 µM | > 100 µM | > 100 µM | > 100 µM | > 100 µM | > 100 µM | > 100 µM | > 100 µM | > 100 µM | > 100 µM | – | – | – | – | – | – | – | – | – | – |
| NCc1nnn(Cc2ccccc2)c1N | > 100 µM | > 100 µM | > 100 µM | > 100 µM | > 100 µM | > 100 µM | > 100 µM | > 100 µM | > 100 µM | > 100 µM | – | – | – | – | – | – | – | – | – | – |
| CCn1cnc2c(Nc3cccc(Cl)c3)nc(N[C@@H]3CCCC[C@@H]3N)nc21 | 3.89 µM | 8.58 µM | 8.6 µM | 2.89 µM | 3.3 µM | 2.98 µM | 3.6 µM | 3.11 µM | 7.62 µM | 5.06 µM | 1.65 µM | 2 µM | 2.09 µM | 1.35 µM | 1.37 µM | 1.44 µM | 1.34 µM | 1.68 µM | 2.08 µM | 1.95 µM |
| COc1cc(-c2cc(-c3nc4ccc(Cl)cc4[nH]3)[nH]n2)cc(OC)c1OC | 13.2 µM | 16.3 µM | 13.1 µM | 14.5 µM | 14.1 µM | 9.96 µM | 12.9 µM | 3.48 µM | 15.6 µM | 15.8 µM | 3.6 µM | 3.42 µM | 2.96 µM | 3.26 µM | 3.38 µM | 2.92 µM | 2.96 µM | 1.62 µM | 3.06 µM | 3.52 µM |
| Nc1ncnc2c1ncn2C1OC(CO)=CC1O (stereo not given) | > 37.5 µM | > 37.5 µM | > 37.5 µM | > 37.5 µM | > 37.5 µM | > 37.5 µM | > 37.5 µM | > 37.5 µM | > 37.5 µM | > 37.5 µM | – | – | – | – | – | – | – | – | – | – |
| C=C(C)[C@@H]1CC[C@]2(C)[C@H](CC[C@@H]3[C@H]4[C@H]5OC[C@@]4(CCC5(C)C)CC[C@]32C)[C@@]1(C)CCCN | 3.8 µM | 3.36 µM | 3.37 µM | 3.07 µM | 3.15 µM | 3.58 µM | 3.23 µM | 3.55 µM | 3.2 µM | 3.2 µM | 1.81 µM | 1.8 µM | 1.69 µM | 1.64 µM | 1.67 µM | 1.79 µM | 1.84 µM | 1.91 µM | 1.63 µM | 1.55 µM |
